Data reported in patent publication US20240182531A1, “KV1.3 Blockers” (priority 2021, published 2024).
pIC50: −log10 of the molar value. Like-named read-outs stand apart in the source and are kept apart here. Where a SMILES comes first, the peptide text is derived from it. Bridges are numbered along the chain shown (N, C = ends). [ ]: non-standard residue; d: D form. Nle = CCCC[C@H](N)C(=O)O

Columns and labels:
human Kv1.1 = molecular target: T1, human Kv1.1 (Homo sapiens, UniProt Q09470); experiment: cell-based
T1 construct: expressed in transfected cells; host or cells: CHO
T1 sequence (Q09470 whole entry): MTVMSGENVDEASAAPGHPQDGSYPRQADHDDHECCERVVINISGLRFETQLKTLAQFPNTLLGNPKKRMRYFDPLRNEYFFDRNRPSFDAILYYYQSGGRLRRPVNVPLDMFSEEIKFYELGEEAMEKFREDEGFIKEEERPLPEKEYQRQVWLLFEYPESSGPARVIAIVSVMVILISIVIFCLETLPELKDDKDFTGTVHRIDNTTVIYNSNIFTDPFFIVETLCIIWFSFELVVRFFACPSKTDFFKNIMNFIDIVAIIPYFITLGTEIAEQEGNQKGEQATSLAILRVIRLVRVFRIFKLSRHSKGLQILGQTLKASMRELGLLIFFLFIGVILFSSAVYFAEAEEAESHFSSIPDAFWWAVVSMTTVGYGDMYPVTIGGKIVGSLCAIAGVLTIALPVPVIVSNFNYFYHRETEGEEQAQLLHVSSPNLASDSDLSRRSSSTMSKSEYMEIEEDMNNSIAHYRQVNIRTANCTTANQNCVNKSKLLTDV

human Kv1.2 = molecular target: T2, human Kv1.2 (Homo sapiens, UniProt P16389); experiment: cell-based
T2 construct: expressed in transfected cells; host or cells: CHO
T2 sequence (P16389 whole entry): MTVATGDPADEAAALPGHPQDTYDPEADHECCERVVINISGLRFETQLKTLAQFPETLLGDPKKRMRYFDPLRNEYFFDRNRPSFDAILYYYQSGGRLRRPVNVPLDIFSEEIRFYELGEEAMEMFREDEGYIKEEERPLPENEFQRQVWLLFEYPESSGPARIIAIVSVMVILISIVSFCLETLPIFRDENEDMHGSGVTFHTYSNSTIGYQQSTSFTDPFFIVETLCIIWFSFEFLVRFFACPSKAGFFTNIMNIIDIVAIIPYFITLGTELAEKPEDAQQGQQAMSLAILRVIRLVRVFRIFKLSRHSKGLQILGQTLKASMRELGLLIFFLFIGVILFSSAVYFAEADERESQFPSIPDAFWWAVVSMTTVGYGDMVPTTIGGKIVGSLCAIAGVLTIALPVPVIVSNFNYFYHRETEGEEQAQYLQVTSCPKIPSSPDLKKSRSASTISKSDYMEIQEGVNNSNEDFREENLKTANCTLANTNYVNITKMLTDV

human Kv1.6 = molecular target: T3, human Kv1.6 (Homo sapiens, UniProt P17658); experiment: cell-based
T3 construct: expressed in transfected cells; host or cells: CHO
T3 sequence (P17658 whole entry): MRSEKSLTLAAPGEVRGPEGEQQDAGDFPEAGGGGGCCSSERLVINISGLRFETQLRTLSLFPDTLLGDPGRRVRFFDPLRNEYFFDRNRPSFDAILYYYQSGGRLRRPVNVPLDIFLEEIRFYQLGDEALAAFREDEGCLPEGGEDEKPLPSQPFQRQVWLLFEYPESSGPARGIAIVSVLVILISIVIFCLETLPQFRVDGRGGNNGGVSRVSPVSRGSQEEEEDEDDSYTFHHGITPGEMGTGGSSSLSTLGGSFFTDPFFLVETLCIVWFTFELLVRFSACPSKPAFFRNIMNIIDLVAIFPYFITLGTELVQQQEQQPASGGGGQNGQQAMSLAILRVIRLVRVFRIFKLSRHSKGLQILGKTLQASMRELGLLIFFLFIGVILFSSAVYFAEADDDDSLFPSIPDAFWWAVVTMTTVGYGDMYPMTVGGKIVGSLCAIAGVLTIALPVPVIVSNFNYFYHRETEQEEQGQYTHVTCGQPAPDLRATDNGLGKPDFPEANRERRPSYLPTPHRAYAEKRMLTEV

Rat whole blood = Rat whole blood (Rattus norvegicus, UniProt P15384); type: cell-based
Chain of Rat whole blood (P15384 whole entry): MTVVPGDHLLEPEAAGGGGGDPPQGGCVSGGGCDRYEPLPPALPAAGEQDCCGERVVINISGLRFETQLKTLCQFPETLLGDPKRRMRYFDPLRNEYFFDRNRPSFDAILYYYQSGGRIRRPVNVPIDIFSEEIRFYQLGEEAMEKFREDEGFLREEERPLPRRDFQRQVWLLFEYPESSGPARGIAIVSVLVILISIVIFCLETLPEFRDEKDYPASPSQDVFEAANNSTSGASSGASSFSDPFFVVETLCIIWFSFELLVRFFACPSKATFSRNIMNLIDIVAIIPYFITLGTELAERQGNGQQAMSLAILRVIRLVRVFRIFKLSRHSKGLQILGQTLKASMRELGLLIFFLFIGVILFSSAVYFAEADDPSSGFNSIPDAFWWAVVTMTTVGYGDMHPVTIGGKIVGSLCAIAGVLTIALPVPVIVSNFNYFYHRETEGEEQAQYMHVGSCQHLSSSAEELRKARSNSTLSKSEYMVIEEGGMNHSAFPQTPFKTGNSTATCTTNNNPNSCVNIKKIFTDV

[1] = ratio of patch clamp IC50 values
[2] = IL-17A release, thapsigargin, 24 Hr, at least 2 replicates

| Compound | Selectivity ratio Kv1.1/Kv1.3 (human Kv1.1; [1]) | Selectivity ratio Kv1.2/Kv1.3 (human Kv1.2; [1]) | Selectivity ratio Kv1.6/Kv1.3 (human Kv1.6; [1]) | pIC50 (Rat whole blood; [2]) | Selectivity ratio Kv1.1/Kv1.3 (human Kv1.1) | Selectivity ratio Kv1.2/Kv1.3 (human Kv1.2) | Selectivity ratio Kv1.6/Kv1.3 (human Kv1.6) | pIC50 (Rat whole blood) |
| --- | --- | --- | --- | --- | --- | --- | --- | --- |
| CCCC[C@@H]1NC(=O)[C@@H]2CSSC[C@H](NC(=O)[C@@H](N)CCCNC(=N)N)C(=O)N[C@@H](CO)C(=O)N[C@@H](C)C(=O)N[C@@H](CO)C(=O)N[C@@H](C(C)C)C(=O)N[C@@H](CCC(=O)O)C(=O)N[C@H]3CSSC[C@H](NC(=O)[C@H](CCCCN)NC(=O)[C@H](CCCCN)NC(=O)[C@H](CC(N)=O)NC1=O)C(=O)N[C@@H](CCCCN)C(=O)N[C@H](C(=O)N[C@@H](Cc1ccc(O)cc1)C(=O)N1CCC[C@H]1C(=O)N[C@@H](CCCNC(=N)N)C(N)=O)CSSC[C@H](NC(=O)[C@H](CCCCN)NC(=O)[C@H](CCC(N)=O)NC(=O)[C@H](CCCCN)NC3=O)C(=O)N[C@@H](CC(C)C)C(=O)N[C@@H](CCCCN)C(=O)N[C@@H](C)C(=O)N[C@@H]([C@@H](C)CC)C(=O)NCC(=O)N[C@@H](CO)C(=O)N[C@@H]([C@@H](C)CC)C(=O)N[C@@H](Cc1ccccc1)C(=O)NCC(=O)N[C@@H](CCCCN)C(=O)N2 [compound 100] (H-RCSASVECKQKCLKAIGSIFGKC[Nle]NKKCKCYPR-NH2; disulfide 2-23, 8-28, 12-30) | >7600 | 708 | 3290 | 9.28 |  |  |  |  |
| CC[C@H](C)[C@@H]1NC(=O)[C@H](C)NC(=O)[C@H](CCCCN)NC(=O)[C@H](CC(C)C)NC(=O)[C@@H]2CSSC[C@@H](C(=O)N[C@@H](Cc3ccc(O)cc3)C(=O)N3CCC[C@H]3C(=O)N[C@@H](CCCNC(=N)N)C(=O)O)NC(=O)[C@H](CCCCN)NC(=O)[C@@H]3CSSC[C@H](NC(=O)[C@H](CCC(=O)O)NC(=O)[C@H](C(C)C)NC(=O)[C@H](CO)NC(=O)[C@H](C)NC(=O)[C@H](CO)NC(=O)[C@@H](N)CSSC[C@H](NC(=O)[C@H](CCCCN)NC(=O)CNC(=O)[C@H](Cc4ccccc4)NC(=O)[C@H]([C@@H](C)CC)NC(=O)[C@H](CO)NC(=O)CNC1=O)C(=O)N[C@@H](CCSC)C(=O)N[C@@H](CC(N)=O)C(=O)N[C@@H](CCCCN)C(=O)N[C@@H](CCCCN)C(=O)N3)C(=O)N[C@@H](CCCCN)C(=O)N[C@@H](CCC(N)=O)C(=O)N[C@@H](CCCCN)C(=O)N2 [compound 106] (H-CSASVECKQKCLKAIGSIFGKCMNKKCKCYPR-OH; disulfide 1-22, 7-27, 11-29) | >1400 | 878 | >1400 | 8.72 |  |  |  |  |
| CC[C@H](C)[C@@H]1NC(=O)[C@H](C)NC(=O)[C@H](CCCCN)NC(=O)[C@H](CC(C)C)NC(=O)[C@@H]2CSSC[C@@H](C(=O)N[C@@H](Cc3ccc(O)cc3)C(=O)N3CCC[C@H]3C(=O)N[C@@H](CCCNC(=N)N)C(N)=O)NC(=O)[C@H](CCCCN)NC(=O)[C@@H]3CSSC[C@H](NC(=O)[C@H](CCC(=O)O)NC(=O)[C@H](C(C)C)NC(=O)[C@H](CO)NC(=O)[C@H](C)NC(=O)[C@H](CO)NC(=O)[C@@H](NC(=O)[C@H](CCCNC(=N)N)NC(=O)[C@H](CCSC)NC(=O)[C@H](CC(=O)O)NC(=O)[C@H](CCSC)NC(=O)[C@@H](N)CC(N)=O)CSSC[C@H](NC(=O)[C@H](CCCCN)NC(=O)CNC(=O)[C@H](Cc4ccccc4)NC(=O)[C@H]([C@@H](C)CC)NC(=O)[C@H](CO)NC(=O)[C@H](CCC(=O)O)NC1=O)C(=O)N[C@@H](CCSC)C(=O)N[C@@H](CC(N)=O)C(=O)N[C@@H](CCCCN)C(=O)N[C@@H](CCCCN)C(=O)N3)C(=O)N[C@@H](CCCCN)C(=O)N[C@@H](CCC(N)=O)C(=O)N[C@@H](CCCCN)C(=O)N2 [compound 27] (H-NMDMRCSASVECKQKCLKAIESIFGKCMNKKCKCYPR-NH2; disulfide 6-27, 12-32, 16-34) | >10200 | 615 | >10200 | 8.55 |  |  |  |  |
| CCCC[C@@H]1NC(=O)[C@@H]2CSSC[C@H](NC(=O)[C@H](CCCNC(=N)N)NC(=O)[C@H](CCCC)NC(=O)[C@H](CCC(=O)O)NC(=O)[C@@H](NC(=O)[C@@H]3CCCN3)[C@@H](C)CC)C(=O)N[C@@H](CO)C(=O)N[C@@H](C)C(=O)N[C@@H](CO)C(=O)N[C@@H](C(C)C)C(=O)N[C@@H](CCC(=O)O)C(=O)N[C@H]3CSSC[C@H](NC(=O)[C@H](CCCCN)NC(=O)[C@H](CCCCN)NC(=O)[C@H](CC(N)=O)NC1=O)C(=O)N[C@@H](CCCCN)C(=O)N[C@H](C(=O)N[C@@H](Cc1ccc(O)cc1)C(=O)N1CCC[C@H]1C(=O)N[C@@H](CCCNC(=N)N)C(=O)O)CSSC[C@H](NC(=O)[C@H](CCCCN)NC(=O)[C@H](CCC(N)=O)NC(=O)[C@H](CCCCN)NC3=O)C(=O)N[C@@H](CC(C)C)C(=O)N[C@@H](CCCCN)C(=O)N[C@@H](C)C(=O)N[C@@H]([C@@H](C)CC)C(=O)NCC(=O)N[C@@H](CO)C(=O)N[C@@H]([C@@H](C)CC)C(=O)N[C@@H](Cc1ccccc1)C(=O)NCC(=O)N[C@@H](CCCCN)C(=O)N2 [compound 92] (H-PIE[Nle]RCSASVECKQKCLKAIGSIFGKC[Nle]NKKCKCYPR-OH; disulfide 6-27, 12-32, 16-34) |  |  |  |  | >7800 | 4561 | >7800 | 8.74 |
| CCCC[C@@H]1NC(=O)[C@@H]2CSSC[C@H](NC(=O)[C@H](CCCNC(=N)N)NC(=O)[C@H](CCCC)NC(=O)[C@H](CC(=O)O)NC(=O)[C@H](CCCC)NC(=O)[C@@H](N)CC(N)=O)C(=O)N[C@@H](CO)C(=O)N[C@@H](C)C(=O)N[C@@H](CO)C(=O)N[C@@H](CCCCN)C(=O)N[C@@H](CCC(=O)O)C(=O)N[C@H]3CSSC[C@H](NC(=O)[C@H](CCCCN)NC(=O)[C@H](CCCCN)NC(=O)[C@H](CC(N)=O)NC1=O)C(=O)N[C@@H](CCCCN)C(=O)N[C@H](C(=O)N[C@@H](Cc1ccc(O)cc1)C(=O)N1CCC[C@H]1C(=O)N[C@@H](CCCNC(=N)N)C(N)=O)CSSC[C@H](NC(=O)[C@H](CCCCN)NC(=O)[C@H](CCC(N)=O)NC(=O)[C@H](CCCCN)NC3=O)C(=O)N[C@@H](CC(C)C)C(=O)N[C@@H](CCCCN)C(=O)N[C@@H](C)C(=O)N[C@@H]([C@@H](C)CC)C(=O)NCC(=O)N[C@@H](CO)C(=O)N[C@@H]([C@@H](C)CC)C(=O)N[C@@H](Cc1ccccc1)C(=O)NCC(=O)N[C@@H](CCCCN)C(=O)N2 [compound 63] (H-N[Nle]D[Nle]RCSASKECKQKCLKAIGSIFGKC[Nle]NKKCKCYPR-NH2; disulfide 6-27, 12-32, 16-34) | >9600 | 587 | 3929 | 9.17 |  |  |  |  |
| CCCC[C@@H]1NC(=O)[C@@H]2CSSC[C@H](NC(=O)[C@H](CCCCN)NC(=O)[C@H](CO)NC(C)=O)C(=O)N[C@@H](CO)C(=O)N[C@@H](C)C(=O)N[C@@H](CO)C(=O)N[C@@H](C(C)C)C(=O)N[C@@H](CCC(=O)O)C(=O)N[C@H]3CSSC[C@H](NC(=O)[C@H](CCCCN)NC(=O)[C@H](CCCCN)NC(=O)[C@H](CC(N)=O)NC1=O)C(=O)N[C@@H](CCCCN)C(=O)N[C@H](C(=O)N[C@@H](Cc1ccc(O)cc1)C(=O)N1CCC[C@H]1C(=O)N[C@@H](CCCNC(=N)N)C(N)=O)CSSC[C@H](NC(=O)[C@H](CCCCN)NC(=O)[C@H](CCC(N)=O)NC(=O)[C@H](CCCCN)NC3=O)C(=O)N[C@@H](CC(C)C)C(=O)N[C@@H](CCCCN)C(=O)N[C@@H](C)C(=O)N[C@@H]([C@@H](C)CC)C(=O)NCC(=O)N[C@@H](CO)C(=O)N[C@@H]([C@@H](C)CC)C(=O)N[C@@H](Cc1ccccc1)C(=O)NCC(=O)N[C@@H](CCCCN)C(=O)N2 [compound 101] (Ac-SKCSASVECKQKCLKAIGSIFGKC[Nle]NKKCKCYPR-NH2; disulfide 3-24, 9-29, 13-31) | >3000 | 196 | 1451 | 9.44 |  |  |  |  |
